Experiments:
4T1 cells = assay: Tumor cell gene expression (qPCR); format: cell-based, mouse; settings: 24 h post-treatment
Procedure: (§1) For qPCR, cells were lysed with Qiazol, and RNA was extracted using Zymo research Direct-zol RNA isolation kit. cDNA was then made from 1 μg of RNA using iScript cDNA Synthesis Kit (Bio-Rad Life Science, Hercules, Calif.). Run conditions were 95° C. for 10 s, 58° C. for 15 s, 70° C. for 15 s. Samples were run in duplicate on a Bio-rad CFX Real Time thermocycler.

EO771 cells = assay: Tumor cell gene expression (qPCR); format: cell-based, mouse; settings: 24 h post-treatment
Procedure: as §1

[1] = tested on: mouse peritoneal macrophages; assay: Macrophage memory experiments (re-stimulation after washout); format: cell-based
Procedure: For macrophage memory experiments, macrophages were stimulated overnight with IL4, IFNγ, and/or emodin. Following, the cells were washed 3× with PBS and cultured for 2 or 5 days in DMEM with 2% FBS. The media were changed every 2 days. The cells were then re-stimulated with IL4 or LPS for 6 h.
as §1, with “macrophages” for “cells”, “Qiazol” for “Qiazol,”, “microgram” for “μg”, “Science).” for “Science, Hercules, Calif.).”

4T1 tumors = assay: 4T1 breast tumor model in BALB/c mice; format: in vivo
Procedure: C57BL/6 and BALB/c mice (8-12 weeks, female) were purchased from Jackson Labs (Bar Harbor, Me.). They were housed at the University of South Carolina Animal Research Facility, and all procedures were approved by the Institutional Animal Care and Use Committee. EO771 or 4T1 cells (2×10^5) in 20 μL of PBS were injected into the 4th pair of mammary glands on C57BL/6 mice or BALB/C, respectively, on Day 0. Starting on Day 1, emodin (40 mg/kg) or vehicle (2% DMSO) was injected intraperitoneally in 1 ml PBS once daily. The tumor size was measured using a caliper every 2-4 days, and the tumor volume was calculated using a formula: V (mm^3)=L (major axis)×W^2 (minor axis)/2. Mice were sacrificed at various time points.
The tumor draining lymph nodes and tumors were collected, and cell populations were analyzed using flow cytometry. Briefly, cells were stained with anti-CD3 FITC, anti-CD4 APC or anti-CD8 APC, and anti-CD25 PE (Biolegend) in PBS containing 2% FBS for 30 min at 4° C. Samples were washed twice with staining buffer and analyzed by flow cytometry using a BD FACS flow cytometer and CXP software version 2.2 (BD Biosciences, San Jose, Calif.). Data were collected for 20,000 live events per sample.
At sacrifice, tumors were embedded in OCT. They were then cut into 8 μm thick frozen sections and placed on slides. For immunohistochemistry staining, the sections were fixed with 4% paraformaldehyde for 10 min, and then blocked with 0.01 M glycine containing 0.1% Triton x-100. Next, the sections were blocked with 5% BSA. They were then incubated in primary antibody overnight at 4° C.: anti-F4/80 (1:50, Biolegend), anti-pSTAT6 (1:50, Cell Signaling), or anti-C/EBPβ (1:50, Santa Cruz). The sections were washed with PBS and then incubated with secondary antibodies for 1 h at room temperature. The sections were then stained with DAPI (1 μg/mL) and coverslipped with DABCO. Slides were imaged using a Zeiss LSM 510 Confocal microscope (Zeiss, Peabody, Mass.). For quantitative analysis, the number of positive cells was manually counted in six random fields of view per section. CD31 staining was performed according to standard methodology. Slides were imaged on a Nikon ECLIPSE E600 microscope (Nikon, Melville, N.Y.) at 200× magnification (10 fields per section). The integrated optical density (IOD) of CD31 was quantified using Image-Pro Plus software.
Macrophages or T cells were isolated from 4T1 tumors from mice sacrificed at 6 weeks post implantation or from EO771 tumors 5 weeks post implantation, using EasySep™ Mouse PE Positive Selection Kit (Stem Cell Technologies, Vancouver, BC). For cell isolation, 1×10^7-1×10^8 cells were incubated with 20 μL PE conjugated anti-F4/80 (Biolegend) for macrophages or 20 μL PE conjugated anti-CD3 for T cells and 50 μL microbeads. The T cells and macrophages were lysed in Qiazol and used for RT-PCR analysis. For ChIP assays, 5-10×10^6 macrophages were fixed in 1% formaldehyde.
Macrophages were fixed in 1% formaldehyde. Excess formaldehyde was quenched with glycine, and the cells were collected in PBS by scraping. The cells were lysed (0.5% IGEPAL, 4 mM HEPES), and the nuclei were resuspended in nuclear lysis buffer (1% SDS, 10 mM EDTA, and 50 mM Tris, pH 8.1). The DNA was sheared by sonication using a Diagnode Bioruptor Pico (Diagenode, Denville, N.J.) for 25 cycles of 30 s on/30 s off. Then 8 μg chromatin was diluted 1:10 (0.01% SDS, 1.1% Triton X-100, 1.2 mM EDTA, 16.7 mM Tris-HCl, pH 8.1, 167 mM NaCl), and 2% of the input was removed from each sample and saved for analysis. Anti-H3K27m3 (Abcam) was added to each sample along with 20 μL of protein A+G magnetic beads (Millipore), and the samples were incubated overnight at 4° C. The beads were washed with low salt, high salt, LiCl, and TE wash buffers sequentially, and the DNA was eluted off the beads with Proteinase K at 62° C. for 2 h (elution buffer: 200 mM NaCl, 1% SDS and 50 mM Tris). The DNA was then analyzed by qPCR.

[2] = 40 mg/kg IP once daily from Day 1

Structure (SMILES): Cc1cc(O)c2c(c1)C(=O)c1cc(O)cc(O)c1C2=O [emodin]
- expression of MCP1, CSF1, and CSF2 (4T1 cells): significantly inhibited
- tumor cell expression of Thy1 (4T1 cells): significantly inhibited
- expression of MCP1, CSF1, and CSF2 (EO771 cells): significantly inhibited
- tumor cell expression of Thy1 (EO771 cells): significantly inhibited
- macrophage response to IL4 after emodin pretreatment alone ([1]; 50 μM 24 h, 2-d washout, IL4 6 h): significantly reduced
- macrophage response to LPS after emodin pretreatment alone ([1]; 50 μM 24 h, 2-d washout, LPS 6 h): no effect
- nuclear STAT1 or STAT6 after 5 days of wash-out ([1]; IFNγ or IL4 pretreated cells with or without emodin): no significant difference
- macrophage response to LPS after IL4 pre-treatment (crossover) ([1]; co-pretreatment with emodin): did not have any effects
- response to secondary IL-4 stimulation after IFNγ pretreatment (crossover) ([1]; emodin co-pretreatment): decreased the response
- response to second LPS or IL-4 treatment (iNOS, Arg1 expression) ([1]; first treated with emodin 50 μM with IFNγ or IL4 24 h, 2 d or 5 d washout): significantly diminished
- primary tumor growth (4T1 tumors; [2]): significant inhibition
- tumor weight at the endpoint (4T1 tumors; [2]): significant inhibition
- fraction of macrophages positive for pSTAT6 and C/EBPβ (4T1 tumors; 26 days post implantation): significantly reduced
- number of macrophages in tumors (4T1 tumors; 26 days post implantation, tumor size not different): significantly reduced
- H3K27m3 levels on the IRF4 promoter in TAMs (4T1 tumors; ChIP-qPCR): significantly increased
- expression of IRF4 in TAMs (4T1 tumors; experimental endpoint, RT-qPCR): significantly decreased
- expression of JMJD3 in TAMs (4T1 tumors; experimental endpoint, RT-qPCR): significantly decreased
- activated CD4+ and CD8+ T cells in draining lymph nodes (4T1 tumors; flow cytometry, CD25): increased
- IFNγ expression in CD3+ T cells vs control mice (4T1 tumors; qPCR): two-fold increase

Reference: US9795570B2, “Modulation of macrophage phenotype by emodin” (University of South Carolina, priority 2016, dated 2017)
